Data on 1 compound can be found in paper PMC4766415 (Nature Communications, 2016).

The subject of one data set is T1, TTR tetramer.
T1 construct: Plasma TTR was then immunoprecipitated; from tissue; host or cells: human plasma
The data set is described as follows: TTR stabilization after oral administration in humans (immunoturbidity, urea). The data set is classed as in vivo, human. As to conditions: for FOI (TTR tetramer after 48 h urea/TTR tetramer at time 0): 4.8 M urea. The method, then:
(§1) TTR stabilization in vivo was measured using an immunoturbidimetric assay as in Fig. 4c. The fraction of initial tetramer concentration (FOI) was determined in triplicate for each sample (FOI=TTR tetramer after 48 h urea treatment/TTR tetramer at time 0 in the presence of urea).
For TTR stabilization analysis, frozen plasma samples were thawed on ice. Samples were then mixed with a 8 M urea solution (in 40 mM sodium phosphate pH 7.4 and 80 mM KCl) to a final urea concentration of 4.8 M. One aliquot was taken immediately after adding urea (time 0) and the rest were incubated for 48 h at controlled RT conditions. After the incubation time points (0 or 48 h), TTR was crosslinked with 40 mM glutaraldehyde (2.5 M stock solution). The samples were quickly vortexed and incubated for 4 min at RT. Then, NaBH4 was added to a final concentration of 48 mM to quench the reaction. Samples were transferred to a measuring tube and read by immunoturbidity after 5 min at RT. Immunoturbidity was measured in a Beckman Coulter AU680 ISE instrument (Beckman Coulter), using the Olympus OSR6175 reagent and calibrator ODR3029 (Olympus) according to the manufacturer's instructions. Analysis was performed in triplicates. Informed consent was obtained from all subjects and the protocol was approved by the Ethics Committee of Hospital Vall d'Hebron (Barcelona).

Data set [1] is described as follows: Tolcapone quantification in human plasma after oral administration (UPLC-MS/MS). Type of data set: in vivo. The conditions noted are these: 200 mg. The protocol:
as §1
Blood was collected 30 min before administration and 2 h after the dose in BD Vacutainer tubes with Lithium-Heparin and gel for plasma separation, following the manufacturer's instructions. Briefly, after gently mixing the tubes by inversion, blood was centrifuged at 1,300g for 10 min at 20 °C. Supernatants were collected and immediately stored at −80 °C until analysis.
Extracted samples were analysed on a Waters Acquity UPLC coupled with a Waters Xevo TQ MS triple quadrupole mass spectrometer. Chromatographic separation was achieved on an Acquity HSS C18 column using a gradient elution with the mobile phase of methanol and 0.1% formic acid in water.

The subject of a further data set is T2, human V30M-TTR.
T2 construct: plasma samples from the transgenic mice expressing human V30M-TTR; from tissue; host or cells: plasma of transgenic mice expressing human V30M-TTR
Description: T4 competition in plasma of transgenic mice after oral tolcapone. As to conditions: 30 to 300 mg kg^−1 by gavage. Type of data set: in vivo. The protocol:
The animals were killed 1 h after the last dose. Plasma samples were obtained before dosing (t=0) and at the end of the experiment. T4 competition assays by native gel electrophoresis were performed in plasma following the same protocol as in Fig. 4a. At basal conditions (t=0), around 40% of the total radioactivity was associated with the TTR band in samples from all animals.
Plasma samples were treated with radiolabelled T4 and subjected to native PAGE. The fraction of radiolabelled T4 bound to the band corresponding to TTR is represented. Error bars indicate s.e.m. (n=4). (b) TTR tetramer stability in the plasma of control and tolcapone-treated transgenic mice was assessed by IEF under semi-denaturing conditions. The ratio between the TTR tetramers and the rest of the TTR species in the IEF gels was calculated for controls and tolcapone-treated mice. The data are expressed as fold increase of the ratio TTR tetramer/total TTR with respect to samples from vehicle-treated animals. ***P<0.001 and **P<0.01 (Student's t-test). Error bars indicate s.e.m. (n=3). […] TTR stabilization was quantified by immunoturbidity after urea denaturation with subsequent crosslinking with glutaraldehyde as detailed in the experimental section. […] White bars correspond to plasma samples crosslinked 0 h after urea addition, black bars correspond to plasma samples crosslinked after 48 h of urea denaturation. […]

In the next data set the test system is T3, L55P-TTR.
T3 construct: TTR is composed of four identical 127 amino-acid residue β-sheet-rich subunits; expressed in transfected cells; host or cells: rat Schwannoma RN22 cells, metallothionein promoter, ZnSO4 induction
The data set is described as follows: Dot-blot filter assay of L55P-TTR aggregation secreted by RN22 cells. Type of data set: cell-based, human. The conditions noted are these: 1 μM in the medium. The method, then: The extent of extracellular L55P-TTR aggregation was monitored by a filter trap assay followed by TTR immunodetection.
The rat Schwannoma cell line RN22 stably co-transfected with TTR L55P cDNA under the control of the metallothionein promoter was used to test the inhibitors of TTR aggregation as in ref. [51]. […] TTR in the medium was quantified by ELISA, and the volume of medium corresponding to 500 ng of TTR was applied on to a 0.2-μm pore cellulose acetate membrane filter (Schleicher and Schuell) using a manifold system (Gibco BRL) to separate soluble proteins from aggregates. […] Detection was performed with ECL (GE Healthcare). Dot blot quantification was performed using the ImageQuant program. The percentage of aggregation inhibition was calculated as 100 × ((Control—Treated)/Control). Experiments were repeated three times in triplicate.

A further data set concerns A25T-TTR. Description: A25T-TTR aggregation inhibition, turbidity, pH 5.0. The conditions noted are these: four molar equivalents (15 μM); A25T-TTR 3.6 μM; pH 5.0, 37 °C, 22 h.

On to `Cc1ccc(C(=O)c2cc(O)c(O)c([N+](=O)[O-])c2)cc1` [tolcapone], for which the “FOI (TTR tetramer after 48 h urea/TTR tetramer at time 0)” value in the data set with TTR tetramer (HV1, 200 mg oral, plasma 2 h after dose) came out at 0.78±0.04; in the data set on TTR tetramer (HV2, 2 × 200 mg oral, plasma 2 h after last dose), 0.98±0.02. The compound further showed a TTR stabilization in the data set on TTR tetramer (single dose of 200 mg, plasma 13.6 μM at Tmax) of 359%. The compound further yielded a concentration at 2 h in data set [1] of 13.6 µM. Besides, the “amount of T4 remaining bound to TTR at the end of treatment” value in the data set on human V30M-TTR was “decreased in a dose-dependent manner”. Also, the “reduction of L55P-TTR aggregation compared with untreated cells” value with L55P-TTR was about 90%. Moreover, the “reduction of A25T-TTR aggregation (turbidity, Fig. 1d)” value in the data set with A25T-TTR came out at 40%.
